In paper PMC9742833:
Structures can show the parent of a compound that is named as a salt.

Columns and labels:
[1] = molecular target: T1, CYP2B6 (Homo sapiens, UniProt P20813); assay: Vivid CYP450 fluorescence assay, reversible inhibition
T1 sequence (P20813 1-491): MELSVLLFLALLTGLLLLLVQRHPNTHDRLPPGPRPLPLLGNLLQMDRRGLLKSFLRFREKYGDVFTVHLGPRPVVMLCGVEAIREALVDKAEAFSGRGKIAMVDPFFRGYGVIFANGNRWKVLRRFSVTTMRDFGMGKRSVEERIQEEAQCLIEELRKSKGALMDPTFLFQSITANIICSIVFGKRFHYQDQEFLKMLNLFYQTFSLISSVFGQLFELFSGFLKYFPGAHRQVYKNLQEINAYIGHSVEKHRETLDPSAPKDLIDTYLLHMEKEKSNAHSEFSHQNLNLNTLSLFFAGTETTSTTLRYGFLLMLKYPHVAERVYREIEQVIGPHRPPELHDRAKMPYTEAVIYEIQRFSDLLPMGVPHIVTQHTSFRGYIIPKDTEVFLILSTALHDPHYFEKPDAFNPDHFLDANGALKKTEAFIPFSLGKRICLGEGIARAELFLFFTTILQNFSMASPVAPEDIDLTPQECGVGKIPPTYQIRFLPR

[2] = molecular target: T2, CYP1A2 (Homo sapiens, UniProt P05177); assay: as above
T2 sequence (P05177 2-516 limits assumed): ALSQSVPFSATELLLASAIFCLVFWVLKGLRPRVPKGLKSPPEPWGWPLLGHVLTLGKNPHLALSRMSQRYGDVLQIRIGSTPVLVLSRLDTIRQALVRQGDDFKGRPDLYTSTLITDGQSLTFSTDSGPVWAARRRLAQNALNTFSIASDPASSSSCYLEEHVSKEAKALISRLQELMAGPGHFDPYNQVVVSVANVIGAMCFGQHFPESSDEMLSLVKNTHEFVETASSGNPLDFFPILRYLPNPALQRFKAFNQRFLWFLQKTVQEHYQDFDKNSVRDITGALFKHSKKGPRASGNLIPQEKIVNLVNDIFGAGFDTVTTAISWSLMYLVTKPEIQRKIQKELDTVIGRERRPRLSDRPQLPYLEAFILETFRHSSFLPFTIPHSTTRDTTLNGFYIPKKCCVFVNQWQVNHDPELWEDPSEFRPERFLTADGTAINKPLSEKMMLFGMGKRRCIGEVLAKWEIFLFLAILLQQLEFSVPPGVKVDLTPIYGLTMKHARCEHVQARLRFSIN

[3] = cited from earlier work
[4] = molecular target: T3, CYP2J2 (Homo sapiens, UniProt P51589); assay: Vivid CYP450 fluorescence assay, reversible inhibition
T3 sequence (P51589 1-502): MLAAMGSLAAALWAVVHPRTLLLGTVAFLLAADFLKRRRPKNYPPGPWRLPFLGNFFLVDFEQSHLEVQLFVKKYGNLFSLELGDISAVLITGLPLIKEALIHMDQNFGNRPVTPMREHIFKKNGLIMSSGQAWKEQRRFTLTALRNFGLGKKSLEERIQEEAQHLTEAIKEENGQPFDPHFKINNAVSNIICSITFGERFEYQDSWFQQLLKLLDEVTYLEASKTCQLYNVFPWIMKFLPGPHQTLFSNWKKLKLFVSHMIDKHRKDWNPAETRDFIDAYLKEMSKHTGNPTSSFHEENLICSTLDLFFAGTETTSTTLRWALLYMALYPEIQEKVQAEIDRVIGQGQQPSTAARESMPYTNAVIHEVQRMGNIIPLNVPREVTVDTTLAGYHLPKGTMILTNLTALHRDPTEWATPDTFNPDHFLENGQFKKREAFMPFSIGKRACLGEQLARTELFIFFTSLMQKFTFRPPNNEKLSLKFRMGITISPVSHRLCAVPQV

[5] = molecular target: T4, CYP2C19 (Homo sapiens, UniProt P33261); assay: as above
[6] = test system: CYP3A4; conditions: human CYP3A4, in vitro; cited from earlier work
[7] = test system: CYP2C8; assay: Vivid CYP450 fluorescence assay, reversible inhibition; conditions: CYP2C8, substrate DBOMF, cathinone 0 to 1000 µM
[8] = cited from earlier work; remark: listed apart in the source
[9] = molecular target: T2, CYP1A2; assay: Time-dependent inhibition (IC50 shift, NADPH pre-incubation); assay type: biochemical; design: purchased Life Technologies
Procedure: (§1) The procedure followed was similar to that used for screening of CYP reversible inhibition as mentioned above but with slight modifications. The master premix was added with NADP^+ to produce NADPH before the pre-incubation. The mixture was incubated for 30 min with shaking under similar range of concentrations of cathinone as mentioned above for IC50 determination. […] The IC50 shift was derived by calculating ratios of IC50 obtained from pre-incubation with and without NADPH. An IC50 shift ratio of more than 2 signifies irreversible time-dependent inhibition.

[10] = molecular target: T3, CYP2J2; assay: as above; assay type: biochemical; design: purchased Life Technologies
Procedure: as §1

[11] = molecular target: T5, CYP2E1 (Homo sapiens, UniProt P05181); assay: as above; assay type: biochemical; design: purchased Life Technologies
Procedure: as §1

[12] = molecular target: T6, CYP2A6 (Homo sapiens, UniProt P11509); assay: as above; assay type: biochemical; design: purchased Life Technologies
T6 sequence (P11509 1-494): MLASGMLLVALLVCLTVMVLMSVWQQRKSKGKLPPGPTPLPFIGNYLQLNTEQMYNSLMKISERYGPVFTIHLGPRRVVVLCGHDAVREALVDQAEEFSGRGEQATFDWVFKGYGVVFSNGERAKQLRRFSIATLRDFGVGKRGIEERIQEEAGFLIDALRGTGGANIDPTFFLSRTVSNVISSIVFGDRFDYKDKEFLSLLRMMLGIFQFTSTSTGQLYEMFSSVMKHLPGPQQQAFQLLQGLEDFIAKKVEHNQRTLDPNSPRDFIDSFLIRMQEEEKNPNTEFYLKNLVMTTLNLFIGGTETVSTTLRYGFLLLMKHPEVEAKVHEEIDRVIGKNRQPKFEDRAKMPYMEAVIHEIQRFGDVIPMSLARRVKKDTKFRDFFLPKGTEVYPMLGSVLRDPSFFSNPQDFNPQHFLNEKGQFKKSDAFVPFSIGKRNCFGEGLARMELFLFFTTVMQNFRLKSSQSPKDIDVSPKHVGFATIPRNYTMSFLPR
Procedure: as §1

[13] = molecular target: T4, CYP2C19; assay: as above; assay type: biochemical; design: purchased Life Technologies
Procedure: as §1

[14] = molecular target: T7, CYP3A5 (Homo sapiens, UniProt P20815); assay: as above; assay type: biochemical; design: purchased Life Technologies
Procedure: as §1

[15] = molecular target: T1, CYP2B6; assay: as above; assay type: biochemical; design: purchased Life Technologies
Procedure: as §1

[16] = molecular target: T7, CYP3A5; assay: Vivid CYP450 fluorescence assay, reversible inhibition
[17] = test system: CYP2C9; conditions: human CYP2C9, in vitro; cited from earlier work
[18] = molecular target: T5, CYP2E1; assay: Vivid CYP450 fluorescence assay, reversible inhibition
[19] = test system: CYP2D6; conditions: human CYP2D6, in vitro; cited from earlier work
[20] = molecular target: T6, CYP2A6; assay: Vivid CYP450 fluorescence assay, reversible inhibition
[21] = from 36.1 to 59.2 g of khat chewed, mean ± SD; cited from earlier work
[22] = test system: T8, CYP2C8; assay: Time-dependent inhibition (IC50 shift, NADPH pre-incubation); assay type: biochemical, human; conditions: CYP2C8 (stated for all 8 CYPs)
T8 construct: purchased Life Technologies
Procedure: as §1

T7 sequence (P20815 whole entry): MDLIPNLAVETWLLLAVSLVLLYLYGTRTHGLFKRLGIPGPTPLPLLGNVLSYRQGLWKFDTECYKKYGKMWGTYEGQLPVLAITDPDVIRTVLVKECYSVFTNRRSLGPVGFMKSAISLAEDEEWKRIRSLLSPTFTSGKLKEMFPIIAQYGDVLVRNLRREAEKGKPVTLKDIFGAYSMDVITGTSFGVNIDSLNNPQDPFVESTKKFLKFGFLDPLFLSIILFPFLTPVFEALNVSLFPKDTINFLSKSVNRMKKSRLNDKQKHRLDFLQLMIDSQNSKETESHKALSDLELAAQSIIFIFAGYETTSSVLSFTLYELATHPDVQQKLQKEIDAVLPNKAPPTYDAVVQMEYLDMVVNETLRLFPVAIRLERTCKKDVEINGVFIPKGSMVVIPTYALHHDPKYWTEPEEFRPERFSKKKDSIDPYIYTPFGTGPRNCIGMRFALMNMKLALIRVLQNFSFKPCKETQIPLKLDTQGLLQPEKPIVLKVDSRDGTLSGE
T4 sequence (P33261 whole entry): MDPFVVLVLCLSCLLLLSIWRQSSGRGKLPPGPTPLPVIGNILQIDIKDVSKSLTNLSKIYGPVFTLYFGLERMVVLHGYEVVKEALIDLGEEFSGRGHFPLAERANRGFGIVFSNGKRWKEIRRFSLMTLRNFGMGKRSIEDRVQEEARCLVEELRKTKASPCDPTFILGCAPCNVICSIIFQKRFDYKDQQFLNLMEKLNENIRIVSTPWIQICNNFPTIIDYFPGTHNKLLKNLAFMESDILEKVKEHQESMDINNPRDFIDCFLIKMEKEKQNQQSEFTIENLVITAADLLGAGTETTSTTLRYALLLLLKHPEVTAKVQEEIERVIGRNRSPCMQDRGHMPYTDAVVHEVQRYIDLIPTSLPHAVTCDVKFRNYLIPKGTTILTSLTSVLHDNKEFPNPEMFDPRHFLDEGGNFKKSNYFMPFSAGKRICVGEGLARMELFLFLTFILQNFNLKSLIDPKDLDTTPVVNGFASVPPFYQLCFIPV
T5 sequence (P05181 whole entry): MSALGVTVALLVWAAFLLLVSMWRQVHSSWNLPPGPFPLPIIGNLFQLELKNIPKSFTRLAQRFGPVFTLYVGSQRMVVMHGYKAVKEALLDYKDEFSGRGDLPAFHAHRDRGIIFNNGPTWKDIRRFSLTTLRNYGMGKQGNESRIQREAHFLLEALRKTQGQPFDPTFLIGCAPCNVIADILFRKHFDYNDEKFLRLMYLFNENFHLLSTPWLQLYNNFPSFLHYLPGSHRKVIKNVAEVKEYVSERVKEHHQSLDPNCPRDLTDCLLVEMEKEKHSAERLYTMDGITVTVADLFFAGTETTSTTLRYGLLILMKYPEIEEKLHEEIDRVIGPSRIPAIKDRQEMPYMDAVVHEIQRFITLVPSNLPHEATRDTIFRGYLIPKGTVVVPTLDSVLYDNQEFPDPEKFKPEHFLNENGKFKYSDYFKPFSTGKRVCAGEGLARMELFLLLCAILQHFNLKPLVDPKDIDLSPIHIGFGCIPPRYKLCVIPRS

Question: With `C[C@H](N)C(=O)c1ccccc1` [Cathinone, (S)− 2-Amino-1-phenyl-1-propanone.hydrochloride] as the compound, how does the IC50 [1] read?
Answer: 165 µM

Question: And the IC50 [2]?
Answer: 17 µM

Question: What about the Ki [2] of the same compound?
Answer: 57.1 µM

Question: And the mode of inhibition ([2]; CYP1A2)?
Answer: competitive

Question: What about the plasma level ([3]; at 0.5 and 7.5 h after the start of khat chewing) of the same compound?
Answer: approximately 20 ng/ml

Question: And the “maximum plasma levels (mean)” value ([3]; khat chewing)?
Answer: 83 ng/mL

Question: And the IC50 [4]?
Answer: 163 µM

Question: And the IC50 [5]?
Answer: 118 µM

Question: What about the inhibitory effects [6] of the same compound?
Answer: negligible inhibitory effects

Question: What about the “inhibition of CYP2C8” value [7] of the same compound?
Answer: no significant inhibition

Question: And the “area under the plasma concentration – time curve (AUC) from 0 to 9 h” value [8]?
Answer: 415 ± 207 ng/ml per hour

Question: And the “time of maximal plasma concentration” value [8]?
Answer: 127 ± 30 min

Question: And the maximal plasma concentration ([8]; khat leaves equivalent to 0.8 mg cathinone/kg body weight)?
Answer: 127 ± 53 ng/mL

Question: And the terminal elimination half-life ([8]; plasma)?
Answer: 4.33 ± 1.7 h

Question: And the IC50 [9]?
Answer: 75.4 µM

Question: And the IC50 [10]?
Answer: 194 µM

Question: And the IC50 [11]?
Answer: 71.3 µM

Question: And the IC50 [12]?
Answer: 13.7 µM

Question: What about the IC50 shift at 60 min ([12]; human, pH 8, probe Vivid CC (3-cyanocoumarin), CYP2A6, shift > 2 = significant TDI) of the same compound?
Answer: 0.84

Question: What about the IC50 [13] of the same compound?
Answer: 220 µM

Question: And the IC50 [14]?
Answer: 11.1 µM

Question: And the IC50 [15]?
Answer: 110 µM

Question: And the IC50 [16]?
Answer: 19.9 µM

Question: And the Ki [16]?
Answer: 23.6 µM

Question: And the mode of inhibition ([16]; CYP3A5)?
Answer: noncompetitive

Question: What about the inhibitory effects [17] of the same compound?
Answer: negligible inhibitory effects

Question: What about the IC50 [18] of the same compound?
Answer: 568 µM

Question: And the inhibitory effects [19]?
Answer: negligible inhibitory effects

Question: What about the IC50 [20] of the same compound?
Answer: 11.5 µM

Question: What about the Ki [20] of the same compound?
Answer: 13.8 µM

Question: And the mode of inhibition ([20]; CYP2A6)?
Answer: un-competitive

Question: And the “Cmax (maximal plasma concentration)” value [21]?
Answer: 58.9 ± 18.8 ng/mL

Question: What about the absorbed [21] of the same compound?
Answer: 59 ± 21%

Question: What about the “time dependent inhibition (TDI) potency” value [22] of the same compound?
Answer: no significant TDI potency

Question: Which “Cmax (maximal plasma concentration)” value [21] does the source give for `C[C@H](N)[C@@H](O)c1ccccc1` [cathine, S,S-(+)-norpseudoephedrine] here?
Answer: 71.2 ± 13.9 ng/mL

Question: And the absorbed [21]?
Answer: 84 ± 6%
